In article PMC2873968, “Novel protein kinase D inhibitors cause potent arrest in prostate cancer cell growth and motility” (BMC Chemical Biology, 2010):

Experiments:
MTT cytotoxicity assay = details: human
Protocol: PC3 cells were seeded into 96-well plates (3000 cells/well) and allowed to attach overnight. Cells were then incubated in media containing 0.3-100 μM inhibitors for 72 h. 3-(4,5-Dimethylthiazol-2-yl)-2,5-diphenyltetrazolium bromide methyl thiazolyl tetrazolium (MTT) solution was prepared at 2 mg/ml concentration in PBS, sterilized by filtering through a 0.2 μm filter, and wrapped in foil to protect from light. 50 μl MTT solution was added to each well and incubated for 4 h at 37°C. Then, media was removed and 200 μl DMSO was added to each well. The plate was mixed for 5 min and the optical density was determined at 570 nm.
PC3 cells were seeded into 96-well plates (3000 cells/well) and were then incubated in media containing 0.3-100 μM inhibitors for 72 h. MTT solution was added to each well and incubated for 4 h. Optical density was read at 570 nm to determine cell viability. The EC50 was determined as the mean ± S.E.M. of three independent experiments for each compound.

DU145 cells = assay: Matrigel invasion assay; assay type: cell-based; details: 10 μM, 22 h
Protocol: DU145 cells (8.0 × 10^4 cells/ml) in RPMI containing 0.1% fetal bovine serum (FBS) were seeded into the top chamber of BioCoat control inserts (pore size 8 μm) or BioCoat Matrigel invasion inserts with Matrigel-coated filters (BD Pharmingen). To stimulate invasion, media in the lower chamber of the insert contained 20% FBS. […] After incubation, noninvasive cells were removed using a cotton swab, and invasive cells were fixed in 100% methanol and stained with 1% crystal violet. After staining, cells were counted under a microscope (200× magnification). The percentage invasion was determined by cell counts in 5 fields of the number of cells that invaded the Matrigel matrix relative to the number of cells that migrated through the control insert.
After 22 hours, noninvasive cells were removed and invasive cells were fixed in 100% methanol, stained in […] crystal violet solution, and photographed. The number of cells that invaded the Matrigel matrix was determined by cell counts in 5 fields relative to the number of cells that migrated through the control insert. The data shown is the mean ± S.E.M. of two independent experiments. Statistical significance versus the control DMSO was determined by unpaired t-test. ***, p < 0.001.

PKD1 = target: T1, PKD1 (Homo sapiens, UniProt Q15139); assay: In vitro radiometric PKD kinase assay; assay type: biochemical; set-up: purchased Biomol International; details: for IC50: radiometric kinase assay, mean ± S.E.M.; for fold greater selectivity toward PKD1: versus PKD2 and PKD3
T1 sequence (Q15139 1-912): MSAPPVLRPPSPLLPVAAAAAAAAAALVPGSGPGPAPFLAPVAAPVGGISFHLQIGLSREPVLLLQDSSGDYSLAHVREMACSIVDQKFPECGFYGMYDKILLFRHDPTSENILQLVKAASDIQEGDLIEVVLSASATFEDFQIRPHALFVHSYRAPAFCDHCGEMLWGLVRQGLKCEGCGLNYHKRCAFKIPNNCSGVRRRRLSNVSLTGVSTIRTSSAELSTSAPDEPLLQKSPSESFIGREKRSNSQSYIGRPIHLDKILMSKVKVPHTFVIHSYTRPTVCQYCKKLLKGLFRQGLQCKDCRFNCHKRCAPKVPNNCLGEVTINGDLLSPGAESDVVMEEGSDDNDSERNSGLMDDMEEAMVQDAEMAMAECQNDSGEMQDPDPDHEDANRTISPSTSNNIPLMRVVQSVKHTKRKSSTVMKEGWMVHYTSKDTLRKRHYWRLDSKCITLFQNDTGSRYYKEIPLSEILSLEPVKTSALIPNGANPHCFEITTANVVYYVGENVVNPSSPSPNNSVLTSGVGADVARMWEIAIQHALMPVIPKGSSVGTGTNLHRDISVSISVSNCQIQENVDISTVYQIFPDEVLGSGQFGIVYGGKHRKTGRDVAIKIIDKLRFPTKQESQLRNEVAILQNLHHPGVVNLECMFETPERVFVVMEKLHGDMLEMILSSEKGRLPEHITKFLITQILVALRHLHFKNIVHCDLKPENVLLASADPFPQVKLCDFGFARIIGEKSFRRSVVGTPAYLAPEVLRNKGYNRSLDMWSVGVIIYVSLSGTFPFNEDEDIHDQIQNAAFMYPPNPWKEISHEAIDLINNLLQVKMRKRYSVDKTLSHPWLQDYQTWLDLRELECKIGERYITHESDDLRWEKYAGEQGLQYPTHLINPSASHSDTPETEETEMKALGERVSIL
Protocol: In vitro radiometric kinase assays were conducted as previously described. Briefly, 1 μCi [γ-^32P] ATP (PerkinElmer Life Sciences), 70 μM ATP, 50 ng purified recombinant human PKD1 (Biomol International, Plymouth Meeting, PA), PKD2 (SignalChem, Richmond, BC, Canada), or CAMKIIα (Enzo Life Sciences) or 75 ng PKD3 (Enzo Life Sciences), and 2.5 μg syntide-2 (Sigma) in 50 μl kinase buffer containing 50 mM Tris-HCl, pH 7.5, 4 mM MgCl2, and 10 mM β-mercaptoethanol. For the CAMK assay, 0.5 mM CaCl2 and 30 ng/μl calmodulin were pre-incubated for 10 min on ice, and then added to each reaction mixture. The reaction was incubated at 30°C for 10 min, and 25 μl of the reaction mixture was then spotted onto Whatman P81 filter paper (Whatman Inc., Clifton, NJ). The filter papers were washed 3 times in 0.5% phosphoric acid, air-dried, and counted using a Beckman LS6500 multipurpose scintillation counter (Beckman).
The in vitro inhibitory activities of the novel compounds toward PKD were determined using radiometric PKD kinase activity assays. Recombinant human PKD1, -2, or -3 was incubated with the substrate, syntide-2, in the presence of 10 different concentrations of each compound. IC50 values were determined for each compound by plotting percent PKD activity versus compound concentration for each point.
A-E, inhibition of recombinant human PKD1 in vitro. […] A 10-point concentration curve was generated for each compound for IC50 determination. Each IC50 was determined as the mean ± S.E.M. of three independent experiments with triplicate determinations at each concentration in each experiment. Representative graphs are shown.

## O=C1NCCSc2c1sc1ccc(O)cc21 [kb-NB142-70]
MTT cytotoxicity assay; PC3 cells
  EC50 at 72 h: 8.03 µM
DU145 cells
  percent invasion: 10%
PKD1
  fold greater inhibition of PKD1 than the parental compound CID755673: 7 fold
  IC50: 0.0283 ± 0.0023 µM
  fold greater selectivity toward PKD1: about 2 fold

## O=C1NCCCc2c1oc1ccc(O)cc21 [CID755673, 7-Hydroxy-2,3,4,5-tetrahydro-[1]benzoxolo[2,3-c]azepin-1-one]
MTT cytotoxicity assay; PC3 cells
  EC50 at 72 h: 320 µM
DU145 cells
  inhibition of invasion (in words): significantly inhibited invasion
PKD1
  IC50: 0.182 ± 0.027 µM

## O=C1NCCSc2c1sc1ccc(O)c(I)c21 [kb-NB165-31]
MTT cytotoxicity assay
  EC50 at 72 h: 31.9 µM
DU145 cells
  inhibition of invasion (in words): levels similar to the parental compound
PKD1
  IC50: 0.114 ± 0.0239 µM

## O=C1NCCCSc2c1sc1ccc(O)cc21 [kb-NB165-92]
MTT cytotoxicity assay
  EC50 at 72 h: 78.3 µM
DU145 cells
  inhibition of invasion (in words): levels similar to the parental compound
PKD1
  IC50: 0.111 ± 0.006 µM
PKD1; versus kb-NB142-70
  fold reduction of potency for PKD1: 2-4 fold

## COc1ccc2sc3c(c2c1)SCCNC3=O [kb-NB165-09]
MTT cytotoxicity assay; PC3 cells
  EC50 at 72 h: 50 µM
DU145 cells
  percent invasion: 10%
PKD1
  IC50: 0.0825 ± 0.0046 µM

## COc1ccc2sc3c(c2c1)SCCCNC3=O [kb-NB184-02]
MTT cytotoxicity assay
  EC50 at 72 h: 33.8 µM
DU145 cells
  inhibition of invasion (in words): levels similar to the parental compound
PKD1
  IC50: 0.193 ± 0.0274 µM
  fold greater selectivity toward PKD1: about 2 fold
